Data: patent US20050096370A1, “Method for inhibiting tumor angiogenesis and tumor growth” (Bizbiotech Co., Ltd., priority 2003, published 2005)

Experiments:
[1] = test system: VEGF; test: VEGF mRNA RT-PCR in NCI-H87, SiHa, SK-N-MC and Caki-1 cells under hypoxia; assay type: cell-based, human; details: Caki-1 cells, hypoxic, 16 hours
Experimental: FIG. 5 is an autoradiograph showing mRNA levels of VEGF and β-actin in cancer cells of different origin.
Levels of HIF-1α and β-actin proteins were analyzed by immunoblot analysis using a rabbit anti-HIF-1α antibody or a rabbit anti-p-actin antibody. Proteins were visualized by enhanced chemiluminescence.

[2] = test system: NCI-H87 gastric carcinoma; test: NCI-H87 gastric carcinoma xenograft tumor growth in nude mice; assay type: in vivo; details: YC-1 30 μg/g daily i.p. 2 weeks, P<0.01
Experimental: (§1) Male nude mice were injected subcutaneously in the flank with 5×10^6 viable Hep3B hepatoma (A), NCI-H87 gastric carcinoma (B), SiHa cervical carcinoma (C), SK-N-MC neuroblastoma (E), or Caki-I renal carcinoma (F) cells. […] Tumor size was measured over time. […] Differences between tumor sizes in the vehicle- and YC-1-treated groups for mice with Hep3B tumors were compared using ANOVA and Duncan's multiple range tests. * denotes P<0.001 relative to the control. Differences between tumor sizes in the vehicle and YC-1-treated groups for mice with other tumors (B-E) were compared using a Mann-Whitney U test. Each number beneath the error bar represents the P value of the difference relative to the control.
(§2) Male nude (BALB/cAnNC˜-nu/nu) mice were purchased from Charles River Japan Inc. (Shin-Yokohama, JAPAN). The animals were housed in a specific pathogen-free room under controlled temperature and humidity. All animal procedures were performed according to the established procedures of the Seoul National University Laboratory Animal Maintenance Manual. Eighty mice aged 7-8 weeks were injected with tumor cells for the xenograft experiments. […]
(§3) Tumors were measured every 2 or 3 days with calipers in two dimensions and the tumor volumes were calculated using the formula: Volume=axb2/2, where a is the width at the widest point of the tumor and h is the width perpendicular to a. […]

[3] = test system: Caki-1 renal carcinoma; test: Caki-1 renal carcinoma xenograft tumor growth in nude mice; assay type: in vivo; details: YC-1 30 μg/g daily i.p. 2 weeks, P<0.01
Experimental: as §1, §2, §3

[4] = test system: HIF-1α and VEGF; test: HIF-1α and VEGF protein immunoblot of Hep3B xenograft tumor lysates; assay type: in vivo, nude mice; details: Hep3B xenografts, 30 μg/g daily i.p. 2 weeks
Experimental: Male nude mice were injected subcutaneously in the flank with 5×10^6 viable Hep3B cells. […] After the last treatment, the mice were euthanized, the tumors removed and lysates prepared for immunoblotting.
Male nude mice were injected subcutaneously in the flank with 5×10^6 viable Hep3B cells. […] After the last treatment, the mice were euthanized, the tumors removed and lysates prepared for immunoblotting. Tumor lysates from vehicle-treated mice (C) and from. […] The antigen-antibody-protein A complexes were washed extensively with the lysis buffer, the immunocomplexes were eluted by boiling for 3 minutes in a sample buffer containing 2% SDS and 10 mM dithiothreitol and subjected to SDS-PAGE, and then immunoblotted using a rat anti HIF-1α antibody developed previously (Chun et al., Biochem J 2002 362:71-79). β-actin protein was measured as an internal standard. VEGF in tumor tissue was detected using a mouse monoclonal anti-VEGF (SantaCruz Biotechnology Inc., Santa Cruz, Calif.) at a dilution of 1:1000, followed by incubation with a horseradish peroxidase-conjugated anti-mouse antiseruni (Zymed Laboratories Inc.).

[5] = test system: HIF-1-regulated genes (VEGF, aldolase A, enolase 1); test: RT-PCR of HIF-1-regulated gene mRNA in Hep3B xenografts; assay type: in vivo, nude mice; details: 30 μg/g daily i.p. 2 weeks
Experimental: Male nude mice were injected subcutaneously in the flank with 5×10^6 viable Hep3B cells. […] After the last treatment, the mice were euthanized, the tumors removed and lysates prepared for mRNA analysis. The mRNA levels of VEGF, aldolase A, enolase 1, and β-actin were measured by semi-quantitative RT-PCR. The quality of the extracted RNAs was verified by identifying the 18S ribosomal RNA (rRNA) on a 1% denaturing agarose gel.
(§4) The quality of the extracted RNAs was verified by identifying the 18S ribosomal RNA (rRNA) on a 1% denaturing agarose gel. VEGF, aldolase A and enolase 1 mRNA levels were also lower in YC-1-treated tumors than in vehicle-treated tumors one experiment. Results are expressed as the mean and 95% confidence intervals of 4 separate experiments.

[6] = test system: natural killer (NK) cell activity; test: NK cell activity of splenic lymphocytes incubated with YC-1 in vitro (51Cr release from YAC-1 cells); assay type: cell-based, nude mice; details: 24 hours
Experimental: (§5) The lymphocytes were then incubated at the indicated effectontarget cell (E:T) ratios with ^51Cr-labeled YAC-1 cells (1×10^4). After 4 hours, the amount of radioactivity in the culture supernatants was measured with a gamma counter. […] Splenic lymphocytes were then isolated and tested for NK cell activity. The result is expressed as the mean of four separate experiments with 95% confidence intervals.
as §4
(§6) Splenic lymphocytes were isolated from each mouse and tested immediately for NK cell activity. The spontaneous release of ^51Cr from YAC-1 cells was usually lower than 10% of the total ^51Cr loaded. NK cell activity was calculated as follows: {(experimental release−spontaneous release)/(total release−spontaneous release)}×100. Each assay was repeated three times and the average value is the result from one experiment. Results are expressed as the mean and 95% confidence intervals of 4 separate experiments.

[7] = test system: natural killer (NK) cell activity; test: NK cell activity of splenic lymphocytes from treated mice (51Cr release from YAC-1 cells); assay type: in vivo, nude mice; details: 30 μg/g daily i.p. for 2 weeks
Experimental: as §5, §6

Question: Which results are given for `OCc1ccc(-c2nn(Cc3ccccc3)c3ccccc23)o1` [YC-1, 3-(5′-hydroxymethyl-2′-furyl)-1-benzylindazole]?
Answer: level of VEGF mRNA [1]: dose-dependently inhibited; tumor size versus vehicle [2]: statistically significantly smaller; tumor size versus vehicle [3]: statistically significantly smaller; level of HIF-1α protein expression in tumors versus vehicle [4]: markedly lower; level of VEGF protein expression in tumors versus vehicle [4]: markedly lower; VEGF, aldolase A and enolase 1 mRNA levels in tumors versus vehicle [5]: lower; cytolytic activity against YAC-1 cells versus lymphocytes incubated without YC-1 [6]: comparable; cytolytic activity versus vehicle-treated mice [7]: comparable
